The conditions of series [1]: 101.33 kPa, Liquid; for speed of sound: Sing-around technique in a fixed-path interferometer; for mass density: Vibrating tube method.
A short description of series [2]: molar heat capacity at constant pressure. The note with it: 101.33 kPa, Liquid, Small sample (50 mg) DSC.

The text below walks through data of the NIST ThermoML archive (doi:10.1021/je301353z).

The structures appear in SMILES notation. Numbers after ± are expanded uncertainties.

A word on the speed of sound: it is the propagation velocity of pressure waves in the medium. Broadly, the mass density is mass per unit of volume.

`CCn1cc[n+](C)c1.F[B-](F)(F)F` [1-ethyl-3-methylimidazolium tetrafluoroborate]: the speed of sound in series [1] (293.15 K) worked out at 1631 ± 2.1 m/s; in series [1] (298.15 K) it was 1619.4 ± 2.1 m/s; in series [1] (303.15 K) it was 1607.6 ± 2.1 m/s; in series [1] (308.15 K) it was 1596.3 ± 2.1 m/s. Also, the mass density in series [1] (293.15 K) amounted to 1283.89 ± 1.7 kg/m3; in series [1] (298.15 K), 1279.91 ± 1.7 kg/m3; in series [1] (303.15 K), 1276.26 ± 1.7 kg/m3; in series [1] (308.15 K), 1272.07 ± 1.7 kg/m3. Also, the “molar heat capacity at constant pressure” value amounted to 303.41 ± 4.7 J/K/mol in series [2] (293.15 K), 305.12 ± 4.7 J/K/mol in series [2] (298.15 K), 306.81 ± 4.8 J/K/mol in series [2] (303.15 K) and 308.58 ± 4.8 J/K/mol in series [2] (308.15 K).
Consider `O=C1CCCN1` [2-pyrrolidinone], for which the speed of sound worked out at 1650.1 ± 1.3 m/s in series [1] (293.15 K), 1633.9 ± 1.3 m/s in series [1] (298.15 K), 1617.1 ± 1.3 m/s in series [1] (303.15 K) and 1601.8 ± 1.3 m/s in series [1] (308.15 K). Besides, the mass density turned out to be 1111.28 ± 1 kg/m3 in series [1] (293.15 K), 1107.15 ± 1 kg/m3 in series [1] (298.15 K), 1103.02 ± 1 kg/m3 in series [1] (303.15 K) and 1098.9 ± 1 kg/m3 in series [1] (308.15 K). For the same compound, the “molar heat capacity at constant pressure” value in series [2] (293.15 K) is listed as 168.36 ± 2.6 J/K/mol; in series [2] (298.15 K) it was 169.55 ± 2.6 J/K/mol; in series [2] (303.15 K), 171.18 ± 2.6 J/K/mol; in series [2] (308.15 K), 172.37 ± 2.7 J/K/mol.
For `CN1CCCC1=O` [N-methylpyrrolidone], the speed of sound in series [1] (293.15 K) was 1565.5 ± 1.3 m/s; in series [1] (298.15 K), 1546 ± 1.2 m/s; in series [1] (303.15 K), 1527.2 ± 1.2 m/s; in series [1] (308.15 K) it was 1507.4 ± 1.2 m/s. The mass density in series [1] (293.15 K) worked out at 1033.23 ± 1 kg/m3; in series [1] (298.15 K), 1028.23 ± 1 kg/m3; in series [1] (303.15 K), 1023.46 ± 1 kg/m3; in series [1] (308.15 K), 1018.66 ± 1 kg/m3. Further, the “molar heat capacity at constant pressure” value was 165.44 ± 2.6 J/K/mol in series [2] (293.15 K), 166.22 ± 2.6 J/K/mol in series [2] (298.15 K), 166.92 ± 2.6 J/K/mol in series [2] (303.15 K) and 167.21 ± 2.6 J/K/mol in series [2] (308.15 K).
On to `c1ccncc1` [pyridine], for which the speed of sound in series [1] (293.15 K) is 1442 ± 1.2 m/s; in series [1] (298.15 K), 1417.8 ± 1.2 m/s; in series [1] (303.15 K), 1398 ± 1.2 m/s; in series [1] (308.15 K), 1377.1 ± 1.2 m/s. The mass density is given as 983.195 ± 1 kg/m3 in series [1] (293.15 K), 978.252 ± 1 kg/m3 in series [1] (298.15 K), 973.228 ± 1 kg/m3 in series [1] (303.15 K) and 968.171 ± 1 kg/m3 in series [1] (308.15 K). Besides, the “molar heat capacity at constant pressure” value in series [2] (293.15 K) came to 130.49 ± 2 J/K/mol; in series [2] (298.15 K), 131.74 ± 2 J/K/mol; in series [2] (303.15 K) it was 132.71 ± 2.1 J/K/mol; in series [2] (308.15 K) it was 133.82 ± 2.1 J/K/mol.
